Measured values reported in paper PMC11242853, “The Antimicrobial Activity of Human Defensins at Physiological Non-Permeabilizing Concentrations Is Caused by the Inhibition of the Plasma Membrane H^+-ATPases” (International Journal of Molecular Sciences, 2024).

Key:
[1] = test system: Candida albicans ATCC 10231; assay: Antimicrobial spread-plate (CFU) killing assay, C. albicans; type: cell-based; conditions: for effect of high extracellular K+ on candidacidal activity: 50 mM KCl, defensins at NPIC, hLf 5 μM, BM2 0.25 μM, nystatin 50 μM; for effect of Tok1p inhibition (TEA) on candidacidal activity: preincubation 15 min at 37 °C with 10 mM TEA+
Experimental: (§1) To determine whether the above microbicidal concentrations exert a permeabilizing effect on fungal and bacterial membranes, the influx of the fluorescent nucleic acid-binding dye propidium iodide (PI) in cells incubated with the peptides was assessed. In cells, dye uptake reflects membrane permeabilization, as PI itself cannot permeate through an intact phospholipid bilayer. […] To select an antimicrobial but non-permeabilizing concentration of each peptide for further assays, we defined as a non-permeabilizing inhibitory concentration (NPIC) the antimicrobial inhibitory concentration (≤10% viable cells) that permeabilized ≤ 10% of cells incubated (90 min at 37 °C) in buffer solution.
(§2) Microbial susceptibility to the peptides was determined in a spread-plate assay as described previously. Briefly, cell suspensions (10^6 cells/mL) in Tris buffer (10 mM Tris-HCl, pH 7.4) were incubated for 90 min at 37 °C with 2-fold serial peptide dilutions. Peptide concentrations ranged from 0 to 2 μM. After incubation, the number of viable cells was determined by plating aliquots (100 μL) in duplicate on plates (SDA for C. albicans, TSA for P. aeruginosa, and M17G agarified medium for L. lactis) that had been dried for 30 min at room temperature in a laminar flow hood. Plates were incubated for 24–48 h at 30 °C (C. albicans and L. lactis) or 24 h at 37 °C (P. aeruginosa). Dilutions yielding 50–200 colonies were counted. Cell viability values, expressed as colony-forming units (CFUs), were calculated relative to the incubation without added peptides and represent the means ± standard deviation (SD) from duplicates of three independent experiments. For inhibition assays, unless otherwise noted, cell suspensions were preincubated (15 min at 37 °C) with the appropriate inhibitor prior to the addition of peptides, but the inhibitor was present throughout the incubation period with the peptide (90 min at 37 °C). Other specific experimental conditions are described as appropriate. In some experiments, the concentrations of human lactoferrin against C. albicans (5 μM), P. aeruginosa (1 μM), and L. lactis (0.065 μM) were used in the control assays. In various viability assays, BM2 peptide (0.25 μM), CCCP (50 μM), colistin (4 μg/mL), nystatin (50 μM), oligomycin A (16 μg/mL), piericidin A (32 μM), and TEA (10 mM) were used.

C. albicans cells [2] = assay: Extracellular potassium measurement (K+-efflux, ICP-MS); type: cell-based, Candida albicans
Experimental: Potassium measurements were performed via inductively coupled plasma mass spectrometry using an Agilent 7700x ICP-MS (Agilent Technologies, Santa Clara, CA, USA). C. albicans cells were cultured in SDB for 16–20 h at 30 °C. The cells were then subcultured in the same media to the mid-logarithmic growth phase and rapidly washed in sterile, deionized, double-distilled water. The cells (10^7 cells/mL) were immediately incubated with the peptides (NPIC) for 90 min at 37 °C. The tubes were centrifuged at 1100× g for 10 min and the supernatants were collected and stored at 4 °C until analysis. The percentage of cytosolic potassium released from cell suspensions treated with nystatin (50 μM) was determined in positive control assays. Total cellular K^+-content (100% value) was measured in the supernatant of cell suspensions previously treated with 0.5% (v/v) HClO4 alone, heated for 1 h at 95 °C, and centrifuged to remove cell debris. Results are expressed as the percentage (means ± SD) of K^+-release relative to the total cellular K^+-content from duplicates of at least three independent assays.

[3] = test system: Pseudomonas aeruginosa PAO1; assay: Antimicrobial spread-plate (CFU) killing assay, P. aeruginosa; type: cell-based
Experimental: as §1, §2

P. aeruginosa cells = assay: Oxygen consumption measurement (polarographic), P. aeruginosa; type: cell-based, Pseudomonas aeruginosa; conditions: after 30 min; defensins 2 x NPIC, human lactoferrin 20 μM, piericidin A 32 µM; preincubated 15 min at 37 °C; untreated cells 83% ± 2%; means ± SD, three experiments
Experimental: (§3) Oxygen consumption by C. albicans and P. aeruginosa cells was determined by polarographically using a biological oxygen monitor (dual digital-model 20; Rank Brothers Ltd., Cambridge, UK) at 25 °C. The apparatus consisted of a twin water-jacketed closed sample chamber, which enabled a control experiment to be conducted concurrently. The cells were grown to mid-log phase in SDB (C. albicans) or TSB (P. aeruginosa), washed twice in Tris buffer, and resuspended in the same buffer. Cell suspensions (approximately 10^7 cells/mL) were preincubated with defensins (2 x NPIC), human lactoferrin (20 μM), or piericidin A (32 μM) for 15 min at 37 °C. Oxygen consumption was recorded at 5-min intervals for a period of 30 min. Three independent experiments were performed, and the data are means ± SD.

C. albicans cells [4] = assay: Oxygen consumption measurement (polarographic), C. albicans; type: cell-based, Candida albicans; conditions: after 30 min; defensins 2 x NPIC, human lactoferrin 20 μM, piericidin A 32 µM; preincubated 15 min at 37 °C; untreated cells 94% ± 2%; means ± SD, three experiments
Experimental: as §3

C. albicans cells [5] = assay: Total cellular ATP (BacTiter-Glo); type: cell-based, Candida albicans; conditions: defensins at NPIC, human lactoferrin 5 μM, BM2 peptide 0.25 μM; 10^6 cells/mL; BacTiter-Glo luminescence
Experimental: Total ATP was measured using the BacTiter-Glo^TM Microbial Cell Viability Assay (Promega Co., Madison, WI, USA) according to the manufacturer’s instructions. […] Aliquots (100 µL) were incubated (90 min at 37 °C) with human defensins (NPICs). Human lactoferrin (5 μM) or BM2 peptide (0.25 μM) was used as positive controls. One hundred microliters of the incubation mixture was transferred to an opaque 96-well plate, mixed with an equal volume of BacTiter-Glo^TM reagent, and incubated for 15 min in the dark. The reagent uses a thermostable luciferase to generate luminescence in an ATP-dependent manner. The emitted luminescence was detected using a Varioskan Flash multimode reader (Thermo Scientific, Waltham, MA, USA) with a 10 s shaking and 1 s integration time. A calibration curve was generated for each experiment with ATP standards ranging from 1 to 1000 nM. All assays were performed at least three times in duplicate.

C. albicans cells [6] = assay: Membrane potential monitoring with DiBAC4(3), flow cytometry; type: cell-based, Candida albicans; conditions: peptides at NPIC, hLf 5 μM, BM2 0.25 μM; DiBAC4(3) 1 µg/mL
Experimental: The membrane potential-sensitive probe DiBAC4(3) was used to monitor the transmembrane electrical potential of C. albicans cells as previously described with slight modifications. Briefly, cells were harvested from mid-log phase cultures via centrifugation and suspended in Tris buffer. The cell suspension was adjusted to 10^6 cells/mL and then incubated with DiBAC4(3) at a final concentration of 1 µg/mL for 30 min. Fluorescence was measured using a CytoFLEX S flow cytometer (Beckman Coulter) with excitation at 561 nm and emission at 690/50 nm. For each treatment, 5000 events were counted per experiment with an exposure time of 1000 ms. Results were analyzed using CytExpert 2.1 Acquisition software. As positive controls, human lactoferrin and BM2 peptide were used. Three independent experiments were performed and data are expressed as means ± SD.

Molecule: C[C@@H]1[C@H](O)[C@@H](C)/C=C/C=C/CC/C=C/C=C/C=C/C=C/C(O[C@H]2O[C@H](C)[C@@H](O)[C@H](N)[C@@H]2O)CC2O[C@](O)(CC(O)C(O)CCC(O)CC(O)CC(O)CC(=O)O[C@H]1C)CC(O)C2C(=O)O (stereo partly drawn) [nystatin, reference compound]
- effect of high extracellular K+ on candidacidal activity [1]: no effect
- effect of Tok1p inhibition (TEA) on candidacidal activity ([1]; peptides at NPIC): not altered
- K^+-release from yeast cells (C. albicans cells [2]; nystatin 50 μM, 90 min, 37 °C, relative to total cellular K+-content (100%), ICP-MS): 70–85%

Molecule: colistin (polymyxin E) [reference compound]
- effect of high extracellular K+ on pseudomonacidal activity ([3]; 50 mM KCl, defensins at NPIC, hLf 1 μM, colistin 4 μg/mL): no effect

Molecule: N#CC(C#N)=NNc1cccc(Cl)c1 [CCCP, carbonyl cyanide m-chlorophenylhydrazone, reference compound]
- viability of P. aeruginosa with CCCP alone, acidic extracellular pH ([3]; 50 µM CCCP, pH of 5.5 and 6.5): decreased
- viability of P. aeruginosa with CCCP alone, alkaline pH ([3]; 50 µM CCCP, pH of 7.4, 7.7, and 8.0): not significantly altered

Molecule: C/C=C(\C)[C@H](O)[C@H](C)/C=C(C)/C=C/C/C(C)=C/Cc1nc(OC)c(OC)c(O)c1C [piericidin A, reference compound]
- O2 consumption of P. aeruginosa (P. aeruginosa cells): 17% ± 3%
- oxygen consumption percentage of C. albicans (C. albicans cells [4]): 20% ± 3%

Molecule: D-NH2-RRRFWWFRRR-CONH2 [BM2 peptide, positive control, reference compound]
- increase in ATP levels compared to the untreated control (C. albicans cells [5]): ~ 9 fold
- transmembrane electrical potential (DiBAC4(3) fluorescence) (C. albicans cells [6]): increase in DiBAC4(3) fluorescence
- effect of high extracellular K+ on candidacidal activity [1]: significantly decreased
- effect of piericidin A on candidacidal activity ([1]; cells preincubated 15 min at 37 °C with 32 µM piericidin A, then peptides (NPIC) 90 min): significantly (p < 0.001) inhibited
- effect of oligomycin A on candidacidal activity ([1]; preincubated 15 min at 37 °C with 16 μg/mL oligomycin A, peptides at NPIC): significantly reduced
- effect of Tok1p inhibition (TEA) on candidacidal activity ([1]; peptides at NPIC): reduced
- K^+-efflux pattern in C. albicans (C. albicans cells [2]; peptides at NPIC / microbicidal concentrations, 10^7 cells/mL, 90 min at 37 °C, steady state compared with maximum intracellular K+ of untreated cells): partial K^+-efflux
